{"source": "patent US10668051B2", "about": "“Modulators of calcium release-activated calcium channel” (Rhizen Pharmaceuticals SA, priority 2009, dated 2020)", "key": {"[1]": {"test_system": "male DBA/1 Ola HSD mice", "experiment": "Collagen-induced arthritis in male DBA/1 Ola HSD mice", "type": "in vivo", "conditions": "10 mg/kg b.wt, daily po, qd", "protocol": "v. Collagen-induced arthritis in male DBA/1 Ola HSD mice: Collagen induced arthritis in rodent models have been widely used to illustrate and understand the development of the disease besides serving as a surrogate for validation of therapeutic targets for human rheumatoid arthritis. Mice were anesthetized with Isoflurane and given 150 μl of Bovine Type II collagen in Freund's complete adjuvant injections (day 0 and day 21). Treatment was initiated on study day 0 and continued once daily, every day (po, qd). Starting on day 18, clinical scores were given daily for each of the paws (right front, left front, right rear, left rear) and continued till the day of sacrifice (day 34). Daily administration of the test compound (Example 69) at 10 mg/kg b.wt alleviated arthritic symptoms, disease progression, and incidence by 30% compared to the control animals."}, "[2]": {"test_system": "Guinea Pigs", "experiment": "OVA-Induced Asthma in Guinea Pigs", "type": "in vivo", "conditions": "10 mg/kg b.wt, oral, 1 h before OVA challenge", "protocol": "iv. OVA-Induced Asthma in Guinea Pigs: Pulmonary eosinophilia and airway remodelling in conjunction with altered neural control of airway tone and airway epithelial desquamation contributes to Airway Hyper-responsiveness (AHR) in asthma. For determination of eosinophil reduction, animals were sensitized with OVA on d0, d7, and d14 followed by another round (0.1% w/v) through inhalation on d19 & d20. Compounds were administered orally 1 h before OVA challenge (0.3%). BAL fluid was collected on d22 for differential count and cytokine estimation. For determination of change in respiratory parameters, animals were subjected to whole body plethysmography immediately after ova challenge."}, "[3]": {"biological_target": "CRAC channels (Homo sapiens (Human), UniProt Q96D31)", "sequence (Q96D31 whole entry)": "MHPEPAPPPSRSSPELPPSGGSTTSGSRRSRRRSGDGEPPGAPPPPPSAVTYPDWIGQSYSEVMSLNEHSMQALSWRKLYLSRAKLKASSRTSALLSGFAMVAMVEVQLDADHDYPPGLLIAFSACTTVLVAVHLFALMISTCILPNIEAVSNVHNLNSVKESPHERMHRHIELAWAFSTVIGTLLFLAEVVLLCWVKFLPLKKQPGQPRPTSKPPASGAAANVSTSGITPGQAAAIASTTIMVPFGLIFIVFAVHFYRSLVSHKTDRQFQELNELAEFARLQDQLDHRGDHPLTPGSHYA", "experiment": "In-vitro CRAC channel inhibition assay in Jurkat cells (thapsigargin-induced calcium influx)", "type": "cell-based", "method_in_brief": "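Jurkat cells given test compounds in Ca2+/Mg2+-free Hanks buffer for 15 min, then thapsigargin (1 μM final) for 15 min to deplete ER stores. IC50 from percent inhibition of thapsigargin-induced Ca2+ influx.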"}, "[4]": {"test_system": "Female Balb/C mice", "experiment": "Concanavalin (Con) A induced Hepatitis in Female Balb/C mice", "type": "in vivo", "conditions": "10 mg/kg b.wt, oral, 1 hour prior to Con A; blood after 24 hours", "protocol": "i. Concanavalin (Con) A induced Hepatitis in Female Balb/C mice: Con A is often used to prepare experimental animals with high levels of cytotoxic T-lymphocytes, because these cells are involved in the development of viral infections in humans. In this model, animals were administered test compounds orally 1 hour prior to intravenous administration of Con A. Blood samples were collected after 24 hours for determination of Serum glutamic oxaloacetic transaminase (SGOT) and Serum glutamic pyruvic transaminase (SGPT) in serum. Results indicated >85% reduction in serum SGOT & SGPT upon administration of the test compound (example 69) at 10 mg/kg b.wt."}}, "data": [{"compound": "Cc1ncc(C(=O)Nc2ccc(-n3nc(C(F)(F)F)cc3C3CC3)cc2)c(C)n1", "note": "[Example 69, N-{4-[5-cyclopropyl-3-(trifluoromethyl)-1H-pyrazol-1-yl]phenyl}-2,4-dimethylpyrimidine-5-carboxamide]", "values": [{"measurement": "alleviation of arthritic symptoms, disease progression, and incidence compared to the control animals", "setting": "[1]", "value": 30, "unit": "%"}, {"measurement": "change in respiratory parameters (whole body plethysmography)", "setting": "[2]", "value": "improvement in respiration"}, {"measurement": "inhibition at 1 µM", "setting": "[3]", "value": 74.6, "unit": "%"}, {"measurement": "reduction in serum SGOT", "setting": "[4]", "value": "> 85", "unit": "%"}, {"measurement": "reduction in serum SGPT", "setting": "[4]", "value": "> 85", "unit": "%"}]}]}
